According to PubChem BioAssay AID256 (DTP/NCI, 2004):
Where “and” joins values, the source holds several entries; their conditions need not be identical. Equal entries are not always repeated. Toxic doses and inconclusive results are not listed.

Test system: CD2F1 mice, L1210 leukemia ip, survival T/C
Experiment: NCI In Vivo Anticancer Drug Screen. Data for tumor model L1210 Leukemia (intraperitoneal) in CD2F1 (CDF1) mice
Conditions: endpoint: mean survival time, higher = longer survival
Summary of the method: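 In this screen, transplantable tumors were grown in mice given either the compound or its vehicle. Results were expressed as the treated measurement relative to the control measurement.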

[1] = dose: 100.0 mg/kg/injection, schedule: Q01DX009 (ip), vehicle: saline with Tween-80
[2] = dose: 100.0 mg/kg/injection, schedule: Q04DX003 (ip), vehicle: saline with Tween-80
[3] = dose: 200.0 mg/kg/injection, schedule: Q01DX009 (ip), vehicle: saline with Tween-80
[4] = dose: 200.0 mg/kg/injection, schedule: Q04DX003 (ip), vehicle: saline with Tween-80
[5] = dose: 400.0 mg/kg/injection, schedule: Q01DX009 (ip), vehicle: saline with Tween-80
[6] = dose: 400.0 mg/kg/injection, schedule: Q04DX003 (ip), vehicle: saline with Tween-80
[7] = dose: 100.0 mg/kg/injection, schedule: Q01DX001 (ip), vehicle: saline with Tween-80
[8] = dose: 200.0 mg/kg/injection, schedule: Q01DX001 (ip), vehicle: saline with Tween-80
[9] = dose: 400.0 mg/kg/injection, schedule: Q01DX001 (ip), vehicle: saline with Tween-80
[10] = dose: 100.0 mg/kg/injection, schedule: Q01DX009 (ip), vehicle: Klucel (hydroxypropylcellulose) (HPC)
[11] = dose: 200.0 mg/kg/injection, schedule: Q01DX009 (ip), vehicle: Klucel (hydroxypropylcellulose) (HPC)

CCOC(=O)C(CC(C)C)NC(=O)C(Cc1ccc(N(CCCl)CCCl)cc1)NC(C)=O (centres undefined) was tested, and the T/C (dose: 0.5 mg/kg/injection, schedule: Q01DX009 (ip), vehicle: saline) was 95 % of control, the T/C (dose: 1.0 mg/kg/injection, schedule: Q01DX009 (ip), vehicle: saline) was 92 % of control and the T/C (dose: 1.0 mg/kg/injection, schedule: Q04DX003 (ip), vehicle: saline with Tween-80) was 100 % of control. For the same compound, the T/C (dose: 2.0 mg/kg/injection, schedule: Q01DX001 (ip), vehicle: saline with Tween-80) was 102 % of control [middle of 4 runs], the T/C (dose: 2.0 mg/kg/injection, schedule: Q01DX009 (ip), vehicle: Klucel (hydroxypropylcellulose) (HPC)) was 92 % of control and 95 % of control and the T/C (dose: 2.0 mg/kg/injection, schedule: Q01DX009 (ip), vehicle: saline) was 94 % of control. For the same compound, the T/C (dose: 2.0 mg/kg/injection, schedule: Q04DX003 (ip), vehicle: saline with Tween-80) was 96 % of control and 97 % of control and 105 % of control, the T/C (dose: 4.0 mg/kg/injection, schedule: Q01DX001 (ip), vehicle: saline with Tween-80) was 102 % of control [middle of 4 runs] and the T/C (dose: 4.0 mg/kg/injection, schedule: Q01DX009 (ip), vehicle: Klucel (hydroxypropylcellulose) (HPC)) was 94 % of control and 95 % of control. The T/C (dose: 4.0 mg/kg/injection, schedule: Q01DX009 (ip), vehicle: saline) was 101 % of control, the T/C (dose: 4.0 mg/kg/injection, schedule: Q04DX003 (ip), vehicle: saline with Tween-80) was 105 % of control [middle of 4 runs] and the T/C (dose: 8.0 mg/kg/injection, schedule: Q01DX001 (ip), vehicle: saline with Tween-80) was 100 % of control and 98 % of control and 102 % of control. The T/C (dose: 8.0 mg/kg/injection, schedule: Q01DX009 (ip), vehicle: Klucel (hydroxypropylcellulose) (HPC)) was 94 % of control and 105 % of control, the T/C (dose: 8.0 mg/kg/injection, schedule: Q01DX009 (ip), vehicle: saline) was 110 % of control and 95 % of control and 103 % of control and the T/C (dose: 8.0 mg/kg/injection, schedule: Q04DX003 (ip), vehicle: saline with Tween-80) was 105 % of control [middle of 5 runs]. The T/C (dose: 16.0 mg/kg/injection, schedule: Q01DX001 (ip), vehicle: saline with Tween-80) was 102 % of control [middle of 4 runs], the T/C (dose: 16.0 mg/kg/injection, schedule: Q01DX009 (ip), vehicle: Klucel (hydroxypropylcellulose) (HPC)) was 97 % of control and 111 % of control and the T/C (dose: 16.0 mg/kg/injection, schedule: Q01DX009 (ip), vehicle: saline) was 120 % of control and 100 % of control and 121 % of control. The T/C (dose: 16.0 mg/kg/injection, schedule: Q04DX003 (ip), vehicle: saline) was 110 % of control, the T/C (dose: 32.0 mg/kg/injection, schedule: Q01DX001 (ip), vehicle: saline with Tween-80) was 104 % of control [middle of 4 runs] and the T/C (dose: 32.0 mg/kg/injection, schedule: Q01DX001 (ip), vehicle: saline) was 105 % of control. For the same compound, the T/C (dose: 32.0 mg/kg/injection, schedule: Q01DX009 (ip), vehicle: Klucel (hydroxypropylcellulose) (HPC)) was 114 % of control, the T/C (dose: 32.0 mg/kg/injection, schedule: Q01DX009 (ip), vehicle: saline) was 101 % of control and the T/C (dose: 32.0 mg/kg/injection, schedule: Q04DX003 (ip), vehicle: saline) was 118 % of control. For the same compound, the T/C (dose: 64.0 mg/kg/injection, schedule: Q01DX001 (ip), vehicle: saline with Tween-80) was 114 % of control and 108 % of control and 98 % of control, the T/C (dose: 64.0 mg/kg/injection, schedule: Q01DX001 (ip), vehicle: saline) was 211 % of control and the T/C (dose: 64.0 mg/kg/injection, schedule: Q01DX009 (ip), vehicle: Klucel (hydroxypropylcellulose) (HPC)) was 119 % of control. For the same compound, the T/C (dose: 64.0 mg/kg/injection, schedule: Q01DX009 (ip), vehicle: saline) was 90 % of control, the T/C (dose: 128.0 mg/kg/injection, schedule: Q01DX001 (ip), vehicle: saline with Tween-80) was 118 % of control and 104 % of control and 106 % of control and the T/C (dose: 128.0 mg/kg/injection, schedule: Q01DX009 (ip), vehicle: saline) was 95 % of control and 105 % of control. The T/C (dose: 128.0 mg/kg/injection, schedule: Q04DX003 (ip), vehicle: saline with Tween-80) was 120 % of control and 92 % of control, the T/C (dose: 128.0 mg/kg/injection, schedule: Q04DX003 (ip), vehicle: saline) was 170 % of control and the T/C (dose: 256.0 mg/kg/injection, schedule: Q01DX001 (ip), vehicle: saline) was 152 % of control. For the same compound, the T/C (dose: 256.0 mg/kg/injection, schedule: Q01DX009 (ip), vehicle: saline) was 103 % of control, the T/C (dose: 256.0 mg/kg/injection, schedule: Q04DX003 (ip), vehicle: saline with Tween-80) was 94 % of control and 107 % of control and the T/C (dose: 256.0 mg/kg/injection, schedule: Q04DX003 (ip), vehicle: saline) was 120 % of control. For the same compound, the T/C (dose: 512.0 mg/kg/injection, schedule: Q01DX009 (ip), vehicle: saline) was 117 % of control.
For Cc1ccc(S(=O)(=O)Oc2cccc(C)c2)cc1, the T/C [1] was 96 % of control, the T/C [2] was 100 % of control and the T/C [3] was 96 % of control. For the same compound, the T/C [4] was 99 % of control, the T/C [5] was 91 % of control and the T/C [6] was 94 % of control.
With O=C1c2ccccc2CC1c1ccccc1 (centres undefined) the T/C (dose: 12.5 mg/kg/injection, schedule: Q01DX009 (ip), vehicle: other) was 102 % of control, the T/C (dose: 25.0 mg/kg/injection, schedule: Q01DX009 (ip), vehicle: other) was 102 % of control and the T/C (dose: 50.0 mg/kg/injection, schedule: Q01DX009 (ip), vehicle: other) was 97 % of control. For the same compound, the T/C (dose: 100.0 mg/kg/injection, schedule: Q01DX009 (ip), vehicle: other) was 96 % of control and the T/C (dose: 200.0 mg/kg/injection, schedule: Q01DX009 (ip), vehicle: other) was 100 % of control.
In the case of O=C1C2C(C(=O)N1c1ccc(OCc3ccccc3)cc1)C1c3ccccc3C2C2CCCCN21 (centres undefined), the T/C (dose: 25.0 mg/kg/injection, schedule: Q01DX009 (ip), vehicle: water) is reported as 100 % of control and the T/C (dose: 50.0 mg/kg/injection, schedule: Q01DX009 (ip), vehicle: water) is reported as 86 % of control.
In the case of ON(C(=Nc1ccccc1)c1ccccc1Cl)c1ccccc1, the T/C (dose: 6.25 mg/kg/injection, schedule: Q01DX009 (ip), vehicle: saline with Tween-80) is reported as 106 % of control, the T/C (dose: 6.25 mg/kg/injection, schedule: Q04DX003 (ip), vehicle: saline with Tween-80) is reported as 102 % of control and the T/C (dose: 12.5 mg/kg/injection, schedule: Q01DX009 (ip), vehicle: saline with Tween-80) is reported as 101 % of control. The T/C (dose: 12.5 mg/kg/injection, schedule: Q04DX003 (ip), vehicle: saline with Tween-80) was 104 % of control, the T/C (dose: 25.0 mg/kg/injection, schedule: Q04DX003 (ip), vehicle: saline with Tween-80) was 102 % of control and the T/C (dose: 100.0 mg/kg/injection, schedule: Q01DX001 (ip), vehicle: saline) was 102 % of control. The T/C (dose: 200.0 mg/kg/injection, schedule: Q01DX001 (ip), vehicle: saline) was 102 % of control.
With Cc1ccc(Sc2ccc([N+](=O)[O-])cc2)cc1 the T/C [1] was 96 % of control, the T/C [2] was 100 % of control and the T/C [3] was 102 % of control. For the same compound, the T/C [4] was 100 % of control, the T/C [5] was 96 % of control and the T/C [6] was 91 % of control.
In the case of Cc1ccc(S(=O)(=O)O)cc1.Cc1ccc(S(=O)(=O)O)cc1.[NH-]C1CCCCC1[NH-].[Pt+2], the T/C (dose: 2.0 mg/kg/injection, schedule: Q04DX003 (ip), vehicle: other) is reported as 177 % of control, the T/C (dose: 4.0 mg/kg/injection, schedule: Q04DX003 (ip), vehicle: other) is reported as 255 % of control and the T/C (dose: 8.0 mg/kg/injection, schedule: Q04DX003 (ip), vehicle: other) is reported as 183 % of control.
With C=C(C)C1CCC2=CCCC(C)C2(C)C1 (centres undefined) the T/C (dose: 50.0 mg/kg/injection, schedule: Q01DX009 (ip), vehicle: saline) was 98 % of control, the T/C (dose: 100.0 mg/kg/injection, schedule: Q01DX009 (ip), vehicle: saline) was 104 % of control and the T/C (dose: 200.0 mg/kg/injection, schedule: Q01DX009 (ip), vehicle: saline) was 90 % of control.
In the case of CC(=O)Nc1ccc(/C=N/NC(=O)CNC(=O)Nc2cccc(C(F)(F)F)c2)cc1, the T/C (dose: 50.0 mg/kg/injection, schedule: Q01DX009 (ip), vehicle: saline with Tween-80) is reported as 88 % of control, the T/C [1] is reported as 88 % of control and the T/C [3] is reported as 92 % of control.
CC(C)(C)C1=CC(=CN(O)C(C)(C)C)C=C(C(C)(C)C)C1=O was tested, and the T/C [7] was 100 % of control, the T/C [8] was 103 % of control and the T/C [9] was 100 % of control.
O=C(COc1cccc(Cl)c1)Nc1ccc(S(=O)(=O)F)cc1 was tested, and the T/C [7] was 97 % of control, the T/C [8] was 95 % of control and the T/C [9] was 91 % of control.
CC(=O)O[C@H]1CC[C@@]2(C)C(=CC[C@H]3[C@@H]4CC[C@H](O)[C@@]4(C)CC[C@@H]32)C1 was tested, and the T/C [10] was 97 % of control, the T/C [11] was 90 % of control and the T/C (dose: 400.0 mg/kg/injection, schedule: Q01DX009 (ip), vehicle: Klucel (hydroxypropylcellulose) (HPC)) was 95 % of control.
With CC(=O)Nc1cccc(C(F)(F)F)c1 the T/C (dose: 50.0 mg/kg/injection, schedule: Q01DX009 (ip), vehicle: Klucel (hydroxypropylcellulose) (HPC)) was 100 % of control, the T/C [10] was 93 % of control and the T/C [11] was 100 % of control.
